Results on 2 molecules are retold here after patent US20240000772A1, “MICROSPHERE FORMULATIONS COMPRISING NALTREXONE AND METHODS FOR MAKING AND USING THE SAME” (Oakwood Laboratories, LLC, priority 2021, published 2024).

Series [1] in a line: Solubility of naltrexone in solvents. It counts as physicochemical. From the text:
(§1) In one aspect, the naltrexone is a free base.
In another aspect, the naltrexone is an HCl salt.

Series [2] in a line: pKa of naltrexone. The format is physicochemical.
Source text: as §1

In brackets after ≈: the same amount, converted by molar mass. Counter-ions that a name gives are not always drawn. Like-named read-outs stand apart in the source and are kept apart here.

Broadly, the solubility is how much of the substance goes into solution per volume. In the case of `O=C1CC[C@@]2(O)[C@H]3Cc4ccc(O)c5c4[C@@]2(CCN3CC2CC2)[C@H]1O5` [naltrexone HCl salt], in series [1] (naltrexone HCl salt, in water, read-out: water solubility), the solubility was roughly 100 mg/mL.
What is called pKa is the negative logarithm of the acid dissociation constant. The low end stands for a stronger acid or weaker base, the high end for a weaker acid or stronger base. For the molecule `O=C1CC[C@@]2(O)[C@H]3Cc4ccc(O)c5c4[C@@]2(CCN3CC2CC2)[C@H]1O5` [naltrexone, Naltrexone], the solubility in series [1] (benzyl alcohol, organic solvent or mixture, naltrexone free base, in BA, read-out: benzyl alcohol (BA) solubility) is greater than 250 mg/mL; in series [1] (dichloromethane, organic solvent or mixture, naltrexone free base, in DCM, read-out: dichloromethane (DCM) solubility) it was 100 mg/mL (≈ 293 mM); in series [1] (ethyl acetate, organic solvent or mixture, naltrexone free base, in EA, read-out: ethyl acetate (EA) solubility), 26 mg/mL (≈ 76.2 mM). This molecule displayed a pKa in series [2] of 8.4.
